Measurements from patent US20190233906A1, “MUTANT STRAINS OF STAPHYLOCOCCUS AUREUS WITH MULTIPLE INACTIVATED TCS SYSTEMS” (priority 2015, published 2019).
Where two headings read alike, the source gives them in different places. Marks after values point to notes of the source that are not given here.

Key:
S. aureus 8325 = assay type: cell-based, Staphylococcus aureus
Procedure: (§1) Antibiotic sensitivity tests were performed at the University Clinic of Navarra. Antibiotics routinely used in clinic for treatment of S. aureus infections were tested by VITEK 2 system. • Growth Kinetics Analysis

S. aureus MW2 = assay type: cell-based, Staphylococcus aureus; details: strain MW2
Procedure: as §1

S. aureus MW2 ΔXV = experiment: Antimicrobial susceptibility test (VITEK 2 system); assay type: cell-based, Staphylococcus aureus; details: for Antimicrobial susceptibility (R/S) / MIC, Minimal inhibitory concentration: strain MW2 ΔXV; for Susceptibility of MW2 ΔXV mutant compared with parental strain: MW2 ΔXV vs MW2; on Antimicrobial susceptibility (R/S): key: R: resistant; S: susceptible
Procedure: as §1

S. aureus 8325 ΔXV = experiment: Antimicrobial susceptibility test (VITEK 2 system); assay type: cell-based, Staphylococcus aureus; details: for Susceptibility of 8325 ΔXV mutant compared with parental strain: 8325 ΔXV vs 8325; for Antimicrobial susceptibility (R/S) / MIC, Minimal inhibitory concentration: strain 8325 ΔXV; on Antimicrobial susceptibility (R/S): key: R: resistant; S: susceptible
Procedure: as §1

[1] = test system: ArlR response regulator of the arlRS two-component system of S. aureus MW2
Wherever Antimicrobial susceptibility (R/S) is given: key: R: resistant; S: susceptible.

Compound | Antimicrobial susceptibility (R/S) (S. aureus 8325; strain 8325) | Antimicrobial susceptibility (R/S) (S. aureus MW2) | Antimicrobial susceptibility (R/S) (S. aureus MW2 ΔXV) | Antimicrobial susceptibility (R/S) (S. aureus 8325 ΔXV) | also measured
CC1(C)S[C@@H]2[C@H](NC(=O)[C@H](N)c3ccccc3)C(=O)N2[C@H]1C(=O)O [Ampicillin] | R | R | R | S | Susceptibility of 8325 ΔXV mutant compared with parental strain (S. aureus 8325 ΔXV): higher susceptibility
CC[C@H]1OC(=O)[C@H](C)[C@@H](O[C@H]2C[C@@](C)(OC)[C@@H](O)[C@H](C)O2)[C@H](C)[C@@H](O[C@@H]2O[C@H](C)C[C@H](N(C)C)[C@H]2O)[C@](C)(O)C[C@@H](C)CN(C)[C@H](C)[C@@H](O)[C@]1(C)O [Azithromycin] | S | S | S | S | 
CC1(C)S[C@@H]2[C@H](NC(=O)Cc3ccccc3)C(=O)N2[C@H]1C(=O)O [Bencilpenicillin] | R | R | R | S | MIC, Minimal inhibitory concentration (S. aureus 8325; strain 8325): (0.25); Susceptibility of 8325 ΔXV mutant compared with parental strain (S. aureus 8325 ΔXV): higher susceptibility; MIC, Minimal inhibitory concentration (S. aureus 8325 ΔXV): (0.12)
CC(=O)OCC1=C(C(=O)O)N2C(=O)[C@@H](NC(=O)Cc3cccs3)[C@H]2SC1 [Cefalotin] | S | R | R | S | 
CO[C@@]1(NC(=O)Cc2cccs2)C(=O)N2C(C(=O)O)=C(COC(N)=O)CS[C@@H]21 [Cefoxitin] | S | R | S | S | Susceptibility of MW2 ΔXV mutant compared with parental strain (S. aureus MW2 ΔXV): more susceptible
CO/N=C(\C(=O)N[C@@H]1C(=O)N2C(C(=O)O)=C(COC(N)=O)CS[C@H]12)c1ccco1 [Cefuroxime] | S | R | R | S | 
O=C(N[C@H](CO)[C@H](O)c1ccc([N+](=O)[O-])cc1)C(Cl)Cl [Chloramphenicol] | S | S | S | S | 
CC[C@H]1OC(=O)[C@H](C)[C@@H](O[C@H]2C[C@@](C)(OC)[C@@H](O)[C@H](C)O2)[C@H](C)[C@@H](O[C@@H]2O[C@H](C)C[C@H](N(C)C)[C@H]2O)[C@](C)(OC)C[C@@H](C)C(=O)[C@H](C)[C@@H](O)[C@]1(C)O [Clarithromycin] | S | S | S | S | 
CCC[C@@H]1C[C@@H](C(=O)N[C@@H]([C@H]2O[C@H](SC)[C@H](O)[C@@H](O)[C@H]2O)[C@H](C)Cl)N(C)C1 [Clindamycin] | S | S | S | S | 
Cc1onc(-c2ccccc2Cl)c1C(=O)N[C@@H]1C(=O)N2[C@@H]1SC(C)(C)[C@@H]2C(=O)O [Cloxacillin] | S | R | R | S | 
CC[C@H]1OC(=O)[C@H](C)[C@@H](O[C@H]2C[C@@](C)(OC)[C@@H](O)[C@H](C)O2)[C@H](C)[C@@H](O[C@@H]2O[C@H](C)C[C@H](N(C)C)[C@H]2O)[C@](C)(O)C[C@@H](C)C(=O)[C@H](C)[C@@H](O)[C@]1(C)O [Erithromycin] | S | S | S | S | 
C[C@@H]1O[C@@H]1P(=O)(O)O [Fosfomycin] | S | S | S | S | MIC, Minimal inhibitory concentration (S. aureus 8325; strain 8325): (16)^a; Susceptibility of 8325 ΔXV mutant compared with parental strain (S. aureus 8325 ΔXV): higher susceptibility; MIC, Minimal inhibitory concentration (S. aureus 8325 ΔXV): (≤8)^a
CC(=O)O[C@H]1C[C@@]2(C)[C@@H](C[C@@H](O)[C@H]3[C@@]4(C)CC[C@@H](O)[C@@H](C)[C@@H]4CC[C@@]32C)/C1=C(\CCC=C(C)C)C(=O)O [Fusidic acid] | S | S | S | S | 
C[C@H]1COc2c(N3CCN(C)CC3)c(F)cc3c(=O)c(C(=O)O)cn1c23 [Levofloxacin] | S | S | S | S | MIC, Minimal inhibitory concentration (S. aureus MW2): (≤0.25)^a; MIC, Minimal inhibitory concentration (S. aureus MW2 ΔXV): (≤0.12)^a
CC(=O)NC[C@H]1CN(c2ccc(N3CCOCC3)c(F)c2)C(=O)O1 [Linezolid] | S | S | S | S | MIC, Minimal inhibitory concentration (S. aureus MW2): (2)^a; Susceptibility of MW2 ΔXV mutant compared with parental strain (S. aureus MW2 ΔXV): more susceptible; MIC, Minimal inhibitory concentration (S. aureus MW2 ΔXV): (1)^a
C/C(=C\C(=O)OCCCCCCCCC(=O)O)C[C@@H]1OC[C@H](C[C@@H]2O[C@H]2[C@@H](C)[C@H](C)O)[C@@H](O)[C@H]1O [Mupirocin] | S | S | S | S | 
O=C1CN(/N=C/c2ccc([N+](=O)[O-])o2)C(=O)N1 [Nitrofurantoin] |  | S | S | S | Antimicrobial susceptibility (R/S) (S. aureus 8325): S; MIC, Minimal inhibitory concentration (S. aureus MW2): (32)^a; MIC, Minimal inhibitory concentration (S. aureus MW2 ΔXV): (≤16)^a
Cc1onc(-c2ccccc2)c1C(=O)N[C@@H]1C(=O)N2[C@@H]1SC(C)(C)[C@@H]2C(=O)O [Oxacillin] | S | R | R | S | MIC, Minimal inhibitory concentration (S. aureus MW2): (≥4)^a; Susceptibility of MW2 ΔXV mutant compared with parental strain (S. aureus MW2 ΔXV): more susceptible; MIC, Minimal inhibitory concentration (S. aureus MW2 ΔXV): (2)^a
CO[C@H]1/C=C/O[C@@]2(C)Oc3c(C)c(O)c4c(O)c(c(/C=N/N5CCN(C)CC5)c(O)c4c3C2=O)NC(=O)/C(C)=C\C=C\[C@H](C)[C@H](O)[C@@H](C)[C@@H](O)[C@@H](C)[C@H](OC(C)=O)[C@@H]1C [Rifampicin] | S | S | S | S | 
CN(C)c1cc(NC(=O)CNC(C)(C)C)c(O)c2c1C[C@H]1C[C@H]3[C@H](N(C)C)C(O)=C(C(N)=O)C(=O)[C@@]3(O)C(O)=C1C2=O [Tigecycline] | S | S | S | S | 
NC[C@H]1O[C@H](O[C@H]2[C@H](O)[C@@H](O[C@H]3O[C@H](CO)[C@@H](O)[C@H](N)[C@H]3O)[C@H](N)C[C@@H]2N)[C@H](N)C[C@@H]1O [Tobramycin] | S | S | S | S | 
CN[C@H](CC(C)C)C(=O)N[C@H]1C(=O)N[C@@H](CC(N)=O)C(=O)N[C@H]2C(=O)N[C@H]3C(=O)N[C@H](C(=O)N[C@H](C(=O)O)c4cc(O)cc(O)c4-c4cc3ccc4O)[C@H](O)c3ccc(c(Cl)c3)Oc3cc2cc(c3O[C@@H]2O[C@H](CO)[C@@H](O)[C@H](O)[C@H]2O[C@H]2C[C@](C)(N)[C@H](O)[C@H](C)O2)Oc2ccc(cc2Cl)[C@H]1O [Vancomycin] | S | S | S | S | MIC, Minimal inhibitory concentration (S. aureus 8325; strain 8325): (1)^a; Susceptibility of 8325 ΔXV mutant compared with parental strain (S. aureus 8325 ΔXV): higher susceptibility; MIC, Minimal inhibitory concentration (S. aureus 8325 ΔXV): (≤0.5)^a
ArlS H242A (ArlS allele that keeps phosphatase activity but cannot phosphorylate ArlR) |  |  |  |  | Protein A expression by Western blotting in arlRS mutant [1]: The resulting strain showed a level of expression of protein A similar to that of the strain complemented with ArlR alone
ArlS histidine kinase of the arlRS two-component system of S. aureus MW2 |  |  |  |  | Protein A expression by Western blotting [1]: They first confirmed that phosphorylation of ArlR by ArlS was necessary to induce protein A expression; Protein A expression by Western blotting in ΔXV strain complemented with arlR plus one HK [1]: In addition to ArlS itself, GraS is able to restore protein A expression in ΔXV strain
Gentamicin | S | S | S | S | 
Quinuspristin/Dalfopristin | S | S | S | S | 
Teicoplanin | S | S | S | S | 
Trimethoprim/Sulfamethoxazole | S | S | S | S | 
histidine kinase of the srrAB two-component system of S. aureus MW2 (SrrB by Table 1; printed 'SrrA' in the sentence) |  |  |  |  | Protein A expression in ΔXV strain complemented with arlR plus one HK [1]: mainly GraS and to a lower level SrrA were able to activate ArlR
